Assay results: PubChem BioAssay AID2060618 (Molecular Pharmacology Branch, DTP, NCI, 2025)
Several values for one entry are separate records, joined by “and”; a condition that tells them apart may be missing. Equal entries are not always repeated. One block for each molecule: values may come before it.

Test system: 454973-116-R2-J3-PDC spheroids, percent test/control viability
Experiment: Anticancer human tumor 454973-116-R2-J3-PDC patient-derived pancreatic carcinoma cell line growth inhibition [CLK]
Conditions: spheroids with HUVEC and MSC; for viability, T/C: stronger effect = lower value
Summary of the method: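 Patient-derived tumor cells grown as complex spheroids with HUVEC endothelial cells and mesenchymal stem cells, treated with drug combinations. Concentrations descend in half-log steps from near clinical Cmax, or from 10 microM if Cmax unknown.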

[1] = curve of first compound, second compound 0.0316 µM
[2] = curve of first compound, second compound 0.1 µM
[3] = curve of first compound, second compound 0.316 µM
[4] = curve of first compound, second compound 1 µM
[5] = curve of first compound, second compound 3.16 µM
[6] = curve of first compound, second compound 10 µM
[7] = second compound 0.0316 µM, first compound 0.0316 µM
[8] = second compound 0.0316 µM, first compound 0.1 µM
[9] = second compound 0.0316 µM, first compound 0.316 µM
[10] = second compound 0.0316 µM, first compound 1 µM
[11] = second compound 0.0316 µM, first compound 3.16 µM
[12] = second compound 0.0316 µM, first compound 10 µM
[13] = second compound 0.1 µM, first compound 0.0316 µM
[14] = second compound 0.1 µM, first compound 0.1 µM
[15] = second compound 0.1 µM, first compound 0.316 µM
[16] = second compound 0.1 µM, first compound 1 µM
[17] = second compound 0.1 µM, first compound 3.16 µM
[18] = second compound 0.1 µM, first compound 10 µM
[19] = second compound 0.316 µM, first compound 0.0316 µM
[20] = second compound 0.316 µM, first compound 0.1 µM
[21] = second compound 0.316 µM, first compound 0.316 µM
[22] = second compound 0.316 µM, first compound 1 µM
[23] = second compound 0.316 µM, first compound 3.16 µM
[24] = second compound 0.316 µM, first compound 10 µM
[25] = second compound 1 µM, first compound 0.0316 µM
[26] = second compound 1 µM, first compound 0.1 µM
[27] = second compound 1 µM, first compound 0.316 µM
[28] = second compound 1 µM, first compound 1 µM
[29] = second compound 1 µM, first compound 3.16 µM
[30] = second compound 1 µM, first compound 10 µM
[31] = second compound 3.16 µM, first compound 0.0316 µM
[32] = second compound 3.16 µM, first compound 0.1 µM
[33] = second compound 3.16 µM, first compound 0.316 µM
[34] = second compound 3.16 µM, first compound 1 µM
[35] = second compound 3.16 µM, first compound 3.16 µM
[36] = second compound 3.16 µM, first compound 10 µM
[37] = second compound 10 µM, first compound 0.0316 µM
[38] = second compound 10 µM, first compound 0.1 µM
[39] = second compound 10 µM, first compound 0.316 µM
[40] = second compound 10 µM, first compound 1 µM
[41] = second compound 10 µM, first compound 3.16 µM
[42] = second compound 10 µM, first compound 10 µM
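Further: spheroids exposed to compounds for 7 days before readout.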

SMILES: CCCS(=O)(=O)Nc1ccc(F)c(C(=O)c2c[nH]c3ncc(-c4ccc(Cl)cc4)cc23)c1F + CN1CCN(c2cc(C(=O)Nc3cc4cc(-c5cnn(C)c5)ccc4cn3)ccn2)CC1
IC50 [1]: 7050 nM
IC50 [2]: 5490 nM
IC50 [3]: < 31.6 nM
IC50 [4]: < 31.6 nM
IC50 [5]: < 31.6 nM
IC50 [6]: < 31.6 nM
viability, T/C [7]: 79.2%
viability, T/C [8]: 101%
viability, T/C [9]: 95.7%
viability, T/C [10]: 105%
viability, T/C [11]: 107%
viability, T/C [12]: 29.3%
viability, T/C [13]: 73.9%
viability, T/C [14]: 80.6%
viability, T/C [15]: 100%
viability, T/C [16]: 96.7%
viability, T/C [17]: 83.7%
viability, T/C [18]: 13.2%
viability, T/C [19]: 1.36%
viability, T/C [20]: 1.57%
viability, T/C [21]: 1.57%
viability, T/C [22]: 2.69%
viability, T/C [23]: 2.52%
viability, T/C [24]: 0.54%
viability, T/C [25]: 0.13%
viability, T/C [26]: 0.17%
viability, T/C [27]: 0.16%
viability, T/C [28]: 0.11%
viability, T/C [29]: 0.17%
viability, T/C [30]: 0.07%
viability, T/C [31]: 0.14%
viability, T/C [32]: 0.16%
viability, T/C [33]: 0.2%
viability, T/C [34]: 0.19%
viability, T/C [35]: 0.74%
viability, T/C [36]: 0.26%
viability, T/C [37]: 0.34%
viability, T/C [38]: 0.17%
viability, T/C [39]: 0.54%
viability, T/C [40]: 0.22%
viability, T/C [41]: 0.8%
viability, T/C [42]: 2.02%

SMILES: Nc1ccn(C2OC(CO)C(O)C2(F)F)c(=O)n1 (stereo unspecified) + CNC(=O)c1ccc(Nc2nc(OC3CCCC3)c3c(-c4ccc5nc(C)oc5c4)c[nH]c3n2)c(OC)c1
IC50 [1]: < 31.6 nM
IC50 [2]: < 31.6 nM
IC50 [3]: < 31.6 nM
IC50 [4]: < 31.6 nM
IC50 [5]: < 31.6 nM
IC50 [6]: < 31.6 nM
viability, T/C [7]: 10.8%
viability, T/C [8]: 9.2%
viability, T/C [9]: 11.1%
viability, T/C [10]: 7.75%
viability, T/C [11]: 7.61%
viability, T/C [12]: 8.18%
viability, T/C [13]: 9.97%
viability, T/C [14]: 8.66%
viability, T/C [15]: 10.6%
viability, T/C [16]: 9.85%
viability, T/C [17]: 11.6%
viability, T/C [18]: 10.8%
viability, T/C [19]: 11.5%
viability, T/C [20]: 10.7%
viability, T/C [21]: 11.8%
viability, T/C [22]: 10.4%
viability, T/C [23]: 10.3%
viability, T/C [24]: 8.88%
viability, T/C [25]: 11.7%
viability, T/C [26]: 6.57%
viability, T/C [27]: 7.9%
viability, T/C [28]: 9.2%
viability, T/C [29]: 7.06%
viability, T/C [30]: 8.15%
viability, T/C [31]: 11.8%
viability, T/C [32]: 6.57%
viability, T/C [33]: 7.14%
viability, T/C [34]: 9.4%
viability, T/C [35]: 7.28%
viability, T/C [36]: 7.11%
viability, T/C [37]: 13%
viability, T/C [38]: 8.08%
viability, T/C [39]: 4.66%
viability, T/C [40]: 6.23%
viability, T/C [41]: 9.5%
viability, T/C [42]: 8.08%

SMILES: COc1cccc2c1C(=O)c1c(O)c3c(c(O)c1C2=O)CC(O)(C(=O)CO)CC3OC1CC(N)C(O)C(C)O1 (stereo unspecified) + CN1CCN(c2cc(C(=O)Nc3cc4cc(-c5cnn(C)c5)ccc4cn3)ccn2)CC1
IC50 [1]: < 31.6 nM
IC50 [2]: < 31.6 nM
IC50 [3]: < 31.6 nM
IC50 [4]: < 31.6 nM
IC50 [5]: < 31.6 nM
IC50 [6]: < 31.6 nM
viability, T/C [7]: 40.8%
viability, T/C [8]: 27.2%
viability, T/C [9]: 21%
viability, T/C [10]: 8.81%
viability, T/C [11]: 0.25%
viability, T/C [12]: 0.19%
viability, T/C [13]: 29.2%
viability, T/C [14]: 26.5%
viability, T/C [15]: 17.9%
viability, T/C [16]: 3.51%
viability, T/C [17]: 0.16%
viability, T/C [18]: 0.16%
viability, T/C [19]: 1.16%
viability, T/C [20]: 1.16%
viability, T/C [21]: 1.46%
viability, T/C [22]: 0.14%
viability, T/C [23]: 0.33%
viability, T/C [24]: 0.12%
viability, T/C [25]: 0.11%
viability, T/C [26]: 0.15%
viability, T/C [27]: 1.47%
viability, T/C [28]: 0.11%
viability, T/C [29]: 0.12%
viability, T/C [30]: 0.18%
viability, T/C [31]: 0.08%
viability, T/C [32]: 0.45%
viability, T/C [33]: 0.15%
viability, T/C [34]: 0.15%
viability, T/C [35]: 0.17%
viability, T/C [36]: 0.1%
viability, T/C [37]: 0.12%
viability, T/C [38]: 0.43%
viability, T/C [39]: 0.13%
viability, T/C [40]: 0.12%
viability, T/C [41]: 0.14%
viability, T/C [42]: 0.11%

More lines, main results first:

IC50 (curve of compound): 5920 nM and 5070 nM
SMILES: COC1C=CCC(C)C(C)S(=O)(=O)NC(=O)c2ccc3c(c2)N(CC2CCC21)CC1(CCCc2cc(Cl)ccc21)CO3 (stereo unspecified)
viability, T/C (compound 0.0316 µM): 109% and 95.4%
viability, T/C (compound 0.1 µM): 103% and 97.3%
viability, T/C (compound 0.316 µM): 95.6% and 90.4%
viability, T/C (compound 1 µM): 94.7%
viability, T/C (compound 3.16 µM): 99.9% and 80.9%
viability, T/C (compound 10 µM): 8.41% and 5.61%

IC50 (curve of compound): > 10000 nM
SMILES: COc1ccc([C@@H](O)c2cc(-c3ncnc4cc(N5CCOCC5)ccc34)c(F)cc2Cl)nn1
viability, T/C (compound 0.0316 µM): 105% and 114%
viability, T/C (compound 0.1 µM): 108% and 102%
viability, T/C (compound 0.316 µM): 95.4% and 102%
viability, T/C (compound 1 µM): 92% and 89.2%
viability, T/C (compound 3.16 µM): 82.7% and 77.8%
viability, T/C (compound 10 µM): 54.3% and 51%

IC50 (curve of compound): > 10000 nM
SMILES: O=C(c1cc(Cc2n[nH]c(=O)c3ccccc23)ccc1F)N1CCN(C(=O)C2CC2)CC1
viability, T/C (compound 0.0316 µM): 115% and 104%
viability, T/C (compound 0.1 µM): 95.9% and 101%
viability, T/C (compound 0.316 µM): 99.6% and 101%
viability, T/C (compound 1 µM): 101% and 99.2%
viability, T/C (compound 3.16 µM): 94.5% and 98.7%
viability, T/C (compound 10 µM): 71.1% and 77.5%

IC50 (curve of compound): 1800 nM and 1680 nM
SMILES: Nc1ccccc1NC(=O)c1ccc(CNC(=O)OCc2cccnc2)cc1
viability, T/C (compound 0.0316 µM): 103% and 100%
viability, T/C (compound 0.1 µM): 96.6% and 102%
viability, T/C (compound 0.316 µM): 90.7% and 89.4%
viability, T/C (compound 1 µM): 71.8% and 70.5%
viability, T/C (compound 3.16 µM): 29.7% and 26.2%
viability, T/C (compound 10 µM): 9.11% and 5.25%

IC50 (curve of compound): < 3.16 nM
SMILES: CCc1c2c(nc3ccc(O)cc13)-c1cc3c(c(=O)n1C2)COC(=O)[C@]3(O)CC
viability, T/C (compound 0.00316 µM): 39.9% and 31.5%
viability, T/C (compound 0.01 µM): 15.9% and 14.3%
viability, T/C (compound 0.0316 µM): 12% and 13%
viability, T/C (compound 0.1 µM): 6.22% and 7.38%
viability, T/C (compound 0.316 µM): 2.81% and 3.92%
viability, T/C (compound 1 µM): 1.02% and 3.21%
